Data on 3 compounds can be found in patent publication US20110110879A1, “Compositions and Methods for Enhancing Eyelashes” (Avon Products, Inc., priority 2009, published 2011).

Assay [1] concerns lipid peroxidation in keratinocytes. Nature of the assay: In vitro assay of lipid peroxidation in keratinocytes. The note with it: concentration of 0.001%. The format is cell-based.
The subject of a further assay is keratin 5. Nature of the assay: In vitro assay for keratin 5 production in keratinocytes. The format is cell-based. The settings on record: concentration of 0.01%.
The next assay has as its system elastin. The note with it: fibroblasts; concentrations of 2×10^−5% and 2×10^−6%.
Another assay concerns fibronectin. The note with it: fibroblasts; concentrations of 2×10^−5% and 2×10^−6%.
For another assay, the target named is MMP-3 (Homo sapiens, UniProt P08254). Nature of the assay: In vitro assay of MMP-3 enzymatic activity. Format: biochemical. The settings on record: concentration of 2×10^−7%.
Sequence of MMP-3 (P08254 100-477, species assumed): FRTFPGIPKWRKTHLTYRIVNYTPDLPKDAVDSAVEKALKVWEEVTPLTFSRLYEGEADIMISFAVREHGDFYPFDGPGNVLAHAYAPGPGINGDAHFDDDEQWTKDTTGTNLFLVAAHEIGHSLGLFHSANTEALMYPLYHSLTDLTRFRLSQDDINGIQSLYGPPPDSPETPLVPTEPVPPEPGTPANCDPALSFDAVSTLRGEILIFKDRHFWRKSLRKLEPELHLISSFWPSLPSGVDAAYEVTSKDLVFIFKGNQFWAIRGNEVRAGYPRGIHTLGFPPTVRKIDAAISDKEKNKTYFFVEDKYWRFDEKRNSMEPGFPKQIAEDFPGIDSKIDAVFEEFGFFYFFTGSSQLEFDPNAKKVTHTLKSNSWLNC
Another assay deals with collagen IV. The note with it: fibroblasts; concentrations of 2×10^−5% and 2×10^−6%.

As for `CC(=O)Oc1c(C)c(C)c2c(c1C)CCC(C)(CCC[C@H](C)CCC[C@H](C)CCCC(C)C)O2` (stereo partly drawn) [tocopherol acetate], the lipid peroxidation result in assay [1] is recorded as “can inhibit lipid peroxidation”.

Turning to `CN(CC(=O)O)C(=N)N` [creatine], in the assay with keratin 5, the “keratin 5 production” value is on record as “can increase keratin 5 production”.

On to N-biotinyl-gly-his-lys, for which, in the assay with elastin, the production of elastin entry was “can increase production”. In the assay on fibronectin, the production of fibronectin entry is “can increase production”. In addition, at MMP-3, the “enzymatic activity of MMP-3” value is “can decrease enzymatic activity”. In addition, in the assay with collagen IV, the “production of collagen IV” value is recorded as “can increase production”.
